Data published in the Kinase Knowledgebase extract (Sharma et al. 2016).

The compounds below were run against EGFR (UniProt P00533).
Sequence of EGFR (P00533 whole entry, looked up): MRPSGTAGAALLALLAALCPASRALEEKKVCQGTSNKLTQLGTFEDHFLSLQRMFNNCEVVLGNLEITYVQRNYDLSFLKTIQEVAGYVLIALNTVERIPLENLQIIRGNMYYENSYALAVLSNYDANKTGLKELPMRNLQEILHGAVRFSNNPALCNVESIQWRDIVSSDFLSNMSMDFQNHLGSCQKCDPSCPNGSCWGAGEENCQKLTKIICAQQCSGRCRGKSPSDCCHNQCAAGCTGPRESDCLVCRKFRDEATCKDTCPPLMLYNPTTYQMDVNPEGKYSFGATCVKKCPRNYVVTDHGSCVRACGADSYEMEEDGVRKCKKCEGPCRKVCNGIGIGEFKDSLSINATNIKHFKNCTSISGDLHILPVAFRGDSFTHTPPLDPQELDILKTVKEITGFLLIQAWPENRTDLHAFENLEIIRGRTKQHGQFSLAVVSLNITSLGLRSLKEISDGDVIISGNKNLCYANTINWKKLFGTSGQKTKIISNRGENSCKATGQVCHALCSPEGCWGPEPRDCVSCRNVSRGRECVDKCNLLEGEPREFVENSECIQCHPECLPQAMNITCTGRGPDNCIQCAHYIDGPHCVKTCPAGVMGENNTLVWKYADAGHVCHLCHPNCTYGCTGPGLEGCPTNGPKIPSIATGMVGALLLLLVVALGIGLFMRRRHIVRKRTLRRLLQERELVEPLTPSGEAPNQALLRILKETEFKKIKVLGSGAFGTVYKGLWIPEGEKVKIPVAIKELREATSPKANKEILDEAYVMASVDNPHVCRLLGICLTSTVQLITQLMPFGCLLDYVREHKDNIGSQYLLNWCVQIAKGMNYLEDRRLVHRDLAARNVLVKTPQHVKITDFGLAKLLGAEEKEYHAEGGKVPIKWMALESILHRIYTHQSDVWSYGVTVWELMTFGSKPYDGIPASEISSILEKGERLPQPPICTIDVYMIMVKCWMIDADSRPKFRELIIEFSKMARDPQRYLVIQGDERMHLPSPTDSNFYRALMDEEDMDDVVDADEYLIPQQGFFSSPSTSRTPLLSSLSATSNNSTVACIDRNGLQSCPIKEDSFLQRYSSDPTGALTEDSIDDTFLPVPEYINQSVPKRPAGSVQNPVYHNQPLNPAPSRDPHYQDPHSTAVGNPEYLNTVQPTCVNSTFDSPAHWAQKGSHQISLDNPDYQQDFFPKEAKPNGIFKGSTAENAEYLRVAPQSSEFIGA

IC50, 0.003 to 25 µM:
Cc1c(C(=O)NCCCn2ccnc2C)cn2ncnc(C3C(=O)Nc4ccccc43)c12 (centres undefined), CCOC(=O)c1cn2ncnc(Nc3ccc(C)c(O)c3)c2c1CC, Cc1ccc(Nc2ncnn3cc(C(=O)NCCCN4CCN(C)CC4)c(C)c23)cc1O, CCc1ccc(Nc2ncnn3cc(C(=O)NCCCN4CCOCC4)c(C)c23)cc1O, COC(=O)c1cn2ncnc(Nc3ccc(C#N)c(O)c3)c2c1C, Cc1c(C(=O)NCCCCN2CCOCC2)cn2ncnc(C3C(=O)Nc4ccccc43)c12 (centres undefined), COC(=O)c1cn2ncnc(Nc3ccc(Oc4ccccc4)cc3)c2c1C, CCc1ccc(Nc2ncnn3cc(C(=O)OC)c(C)c23)cc1O, COC(=O)c1cn2ncnc(Nc3ccc(Br)c(C)c3)c2c1C, COC(=O)c1cn2ncnc(Nc3cccc(O)c3)c2c1C, COC(=O)c1cn2ncnc(C3C(=O)Nc4ccc(S(N)(=O)=O)cc43)c2c1C (centres undefined), Cc1ccc(Nc2ncnn3c(C)cc(C)c23)cc1O, CCOC(=O)c1cn2ncnc(Nc3cccc(Br)c3)c2c1CC, Cc1ccc(Nc2ncnn3cc(Cn4cncn4)c(C)c23)cc1O, COC(=O)c1cn2ncnc(Nc3ccc(F)c(Cl)c3)c2c1C, COC(=O)c1cn2ncnc(Nc3cccc(S(=O)(=O)O)c3)c2c1C, CCOC(=O)c1cn2ncnc(Nc3ccc(OC)nc3)c2c1C, CCc1c(COCCN2CCOCC2)cn2ncnc(Nc3ccc4c(cnn4Cc4ccccc4)c3)c12, COC(=O)c1cn2ncnc(Nc3cccc(S(N)(=O)=O)c3)c2c1C, Cc1nc(Nc2ccc(C)c(O)c2)c2c(C)c(C(N)=O)cn2n1, Cc1c(C(=O)NCCCN2CCOCC2)cn2ncnc(Nc3ccc(Br)c(O)c3)c12, COC(=O)c1cn2ncnc(Nc3ccc4c(c3)N(C(C)=O)CC4)c2c1C, COC(=O)c1cn2ncnc(C3C(=O)Nc4ccc(S(=O)(=O)NCCN5CCOCC5)cc43)c2c1C (centres undefined), CCOC(=O)c1cn2ncnc(NCc3ccc(Br)cc3)c2c1CC, CCOC(=O)c1cn2ncnc(N[C@@H](C)c3ccccc3)c2c1CC, COc1c(NCCCCN2CCN(C)CC2)cn2ncnc(C3C(=O)Nc4ccccc43)c12 (centres undefined), CCOC(=O)c1cn2ncnc(Nc3ccc(OC)nc3)c2c1OC, COC(=O)c1cn2ncnc(Nc3cc[nH]n3)c2c1C, Cc1ccc(Nc2ncnn3cc(C(=O)NCCN4CCCC4)c(C)c23)cc1O, Cc1ccc(Nc2ncnn3cc(C(=O)NCCCCN(C)C)c(C)c23)cc1O, COC(=O)c1cn2ncnc(Nc3ccc4cn[nH]c4c3)c2c1C, COC(=O)c1cn2ncnc(-c3c(O)[nH]c4cc(F)ccc34)c2c1C, COCCCNC(=O)c1cn2ncnc(C3C(=O)Nc4ccccc43)c2c1C (centres undefined), CCOC(=O)c1cn2ncnc(Nc3ccc(O)cc3)c2c1CC, Cc1nc(C2C(=O)Nc3ccccc32)c2c(C)c(C(=O)NCCN3CCCC3)cn2n1 (centres undefined), COC(=O)c1cn2ncnc(C3C(=O)Nc4cc(C(F)(F)F)ccc43)c2c1C (centres undefined), CCOC(=O)c1cn2ncnc(C3C(=O)Nc4ccccc43)c2c1OCC (centres undefined), COC(=O)c1cn2ncnc(C3C(=O)Nc4ccc(NS(C)(=O)=O)cc43)c2c1C (centres undefined), CCOC(=O)c1cn2ncnc(NCCc3ccccn3)c2c1CC
